In PubChem BioAssay AID330 (DTP/NCI, 2004):
Values joined by “and” are separate entries in the source; they are usually repeats but may differ in a detail not shown here. Equal entries are not always repeated. Inconclusive results and toxic doses are left out. Rule for the calls: active = survival T/C of 150% or more; inactive = T/C below 125% in these data.

Tested on: P388 leukemia ip, CD2F1 mice, survival T/C
Experiment: NCI In Vivo Anticancer Drug Screen. Data for tumor model P388 Leukemia (intraperitoneal) in CD2F1 (CDF1) mice
Conditions: endpoint: median survival time, higher = longer survival
Outline: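 Mice carrying the transplanted tumor received test compound or vehicle. Survival was recorded in each group, and the value is the treated-group measurement divided by that of the vehicle-treated control group.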

[1] = dose: 6.25 mg/kg/injection, schedule: Q01DX005 (ip), vehicle: Klucel (hydroxypropylcellulose) (HPC)
[2] = dose: 12.5 mg/kg/injection, schedule: Q01DX005 (ip), vehicle: Klucel (hydroxypropylcellulose) (HPC)
[3] = dose: 25.0 mg/kg/injection, schedule: Q01DX005 (ip), vehicle: Klucel (hydroxypropylcellulose) (HPC)
[4] = dose: 12.5 mg/kg/injection, schedule: Q01DX009 (ip), vehicle: Klucel (hydroxypropylcellulose) (HPC)
[5] = dose: 25.0 mg/kg/injection, schedule: Q01DX009 (ip), vehicle: Klucel (hydroxypropylcellulose) (HPC)
[6] = dose: 50.0 mg/kg/injection, schedule: Q01DX009 (ip), vehicle: Klucel (hydroxypropylcellulose) (HPC)
[7] = dose: 50.0 mg/kg/injection, schedule: Q01DX005 (ip), vehicle: Klucel (hydroxypropylcellulose) (HPC)
[8] = dose: 100.0 mg/kg/injection, schedule: Q01DX005 (ip), vehicle: Klucel (hydroxypropylcellulose) (HPC)
[9] = dose: 200.0 mg/kg/injection, schedule: Q01DX005 (ip), vehicle: Klucel (hydroxypropylcellulose) (HPC)
[10] = dose: 50.0 mg/kg/injection, schedule: Q01DX005 (ip), vehicle: saline
[11] = dose: 100.0 mg/kg/injection, schedule: Q01DX005 (ip), vehicle: saline
[12] = dose: 200.0 mg/kg/injection, schedule: Q01DX005 (ip), vehicle: saline
[13] = dose: 25.0 mg/kg/injection, schedule: Q04DX003 (ip), vehicle: saline with Tween-80
[14] = dose: 50.0 mg/kg/injection, schedule: Q01DX005 (ip), vehicle: saline with Tween-80
[15] = dose: 50.0 mg/kg/injection, schedule: Q04DX003 (ip), vehicle: saline with Tween-80
[16] = dose: 100.0 mg/kg/injection, schedule: Q01DX009 (ip), vehicle: Klucel (hydroxypropylcellulose) (HPC)
[17] = dose: 200.0 mg/kg/injection, schedule: Q01DX009 (ip), vehicle: Klucel (hydroxypropylcellulose) (HPC)
[18] = dose: 25.0 mg/kg/injection, schedule: Q01DX009 (ip), vehicle: saline with Tween-80
[19] = dose: 50.0 mg/kg/injection, schedule: Q01DX009 (ip), vehicle: saline with Tween-80
[20] = dose: 100.0 mg/kg/injection, schedule: Q01DX009 (ip), vehicle: saline with Tween-80
[21] = dose: 100.0 mg/kg/injection, schedule: Q04DX003 (ip), vehicle: saline with Tween-80
[22] = dose: 100.0 mg/kg/injection, schedule: Q01DX005 (ip), vehicle: saline with Tween-80

Measured: T/C

[CH3][Sn]1([CH3])[O]C2C(O)OC(CO)C(O)C2[O]1 (stereo unspecified)
inactive: [1] 108 % of control and 113 % of control | [2] 110 % of control and 111 % of control (2×) | [3] 109 % of control and 120 % of control and 121 % of control

Clc1ccc(-c2csc3cccc[n+]23)cc1
inactive: [4] 103 % of control | [5] 100 % of control | [6] 103 % of control

CN1C(=O)/C(=N\n2c(-c3ccccc3)nc3ccccc3c2=O)c2ccccc21
inactive: [3] 91 % of control | [7] 87 % of control and 88 % of control | [8] 102 % of control and 89 % of control | [9] 100 % of control

[Cl][Pd][Cl].[NH-]C(C(=O)O)c1ccccc1.[NH-]C(C(=O)O)c1ccccc1 (stereo unspecified)
inactive: dose: 100.0 mg/kg/injection, schedule: Q04DX003 (ip), vehicle: saline 103 % of control | dose: 200.0 mg/kg/injection, schedule: Q04DX003 (ip), vehicle: saline 97 % of control | dose: 400.0 mg/kg/injection, schedule: Q04DX003 (ip), vehicle: saline 109 % of control

O=CN(CCO)CCO
inactive: [10] 107 % of control | [11] 94 % of control | [12] 114 % of control

CC(C)CC(C(=O)O)N1C(=O)C=CC1=O (stereo unspecified)
inactive: [4] 93 % of control | [5] 107 % of control

CC(C)[C@@]12O[C@@H]1CC13OC1[C@@H](O)CC[C@@]32O (stereo partly specified)
inactive: [10] 105 % of control | [11] 99 % of control | [12] 103 % of control

Nc1nsc(Cl)n1
inactive: dose: 25.0 mg/kg/injection, schedule: Q01DX001 (ip), vehicle: saline with Tween-80 97 % of control | dose: 50.0 mg/kg/injection, schedule: Q01DX001 (ip), vehicle: saline with Tween-80 106 % of control | dose: 100.0 mg/kg/injection, schedule: Q01DX001 (ip), vehicle: saline with Tween-80 99 % of control

CC(=O)CC(=O)c1ccc(C)cc1.CC(=O)CC(=O)c1ccc(C)cc1.[Ni]
inactive: dose: 3.12 mg/kg/injection, schedule: Q01DX005 (ip), vehicle: saline with Tween-80 97 % of control | dose: 6.25 mg/kg/injection, schedule: Q01DX005 (ip), vehicle: saline with Tween-80 95 % of control | dose: 12.5 mg/kg/injection, schedule: Q01DX005 (ip), vehicle: saline with Tween-80 90 % of control | dose: 25.0 mg/kg/injection, schedule: Q04DX002 (ip), vehicle: saline with Tween-80 95 % of control | [13] 97 % of control | [14] 91 % of control | dose: 50.0 mg/kg/injection, schedule: Q04DX002 (ip), vehicle: saline with Tween-80 99 % of control | [15] 101 % of control | dose: 100.0 mg/kg/injection, schedule: Q04DX002 (ip), vehicle: saline with Tween-80 105 % of control | dose: 200.0 mg/kg/injection, schedule: Q04DX002 (ip), vehicle: saline with Tween-80 98 % of control

CCCCC(O)/C=C(C)/C=C/C=C/C(=O)N1CCCC1=O (stereo unspecified)
inactive: [5] 113 % of control | [6] 113 % of control | [16] 110 % of control | [17] 110 % of control | dose: 400.0 mg/kg/injection, schedule: Q01DX009 (ip), vehicle: Klucel (hydroxypropylcellulose) (HPC) 118 % of control

CCOC(=O)c1c(Nc2ccccc2O)oc2ccccc12
inactive: dose: 100.0 mg/kg/injection, schedule: Q04DX003 (ip), vehicle: Klucel (hydroxypropylcellulose) (HPC) 98 % of control | dose: 200.0 mg/kg/injection, schedule: Q04DX003 (ip), vehicle: Klucel (hydroxypropylcellulose) (HPC) 92 % of control | dose: 400.0 mg/kg/injection, schedule: Q04DX003 (ip), vehicle: Klucel (hydroxypropylcellulose) (HPC) 95 % of control

CCCCCCCCCCCCCCCCCC1=NCCN1CCN
inactive: [18] 100 % of control | [13] 100 % of control | [19] 104 % of control | [15] 109 % of control | [20] 109 % of control | [21] 95 % of control

CCC1(C)c2[nH]c3ccccc3c2C(=O)NN1C(C)=O (stereo unspecified)
inactive: [7] 104 % of control | [8] 107 % of control | [9] 112 % of control

Cc1[nH]nc2c(NC[c-]3[c-][c-][c-][c-]3)ncnc12.[Fe].[c-]1[c-][c-][cH-][c-]1
inactive: [1] 101 % of control | [2] 100 % of control | [3] 115 % of control and 86 % of control

CC1=C(C)C(=O)O[C@@H]([C@](C)(O)[C@]2(O)CC[C@@]3(O)[C@@H]4C[C@H]5O[C@]56[C@@H](O)C=CC(=O)[C@]6(C)[C@H]4CC[C@]23C)C1
inactive: dose: 1.0 mg/kg/injection, schedule: Q01DX005 (ip), vehicle: distilled water + Tween-80 108 % of control | dose: 2.0 mg/kg/injection, schedule: Q01DX005 (ip), vehicle: distilled water + Tween-80 122 % of control | dose: 4.0 mg/kg/injection, schedule: Q01DX005 (ip), vehicle: distilled water + Tween-80 111 % of control and 113 % of control | dose: 4.0 mg/kg/injection, schedule: Q01DX005 (ip), vehicle: saline 122 % of control | dose: 8.0 mg/kg/injection, schedule: Q01DX005 (ip), vehicle: distilled water + Tween-80 108 % of control and 113 % of control | dose: 16.0 mg/kg/injection, schedule: Q01DX005 (ip), vehicle: distilled water + Tween-80 116 % of control | dose: 16.0 mg/kg/injection, schedule: Q01DX005 (ip), vehicle: saline 122 % of control | dose: 16.0 mg/kg/injection, schedule: Q01DX009 (ip), vehicle: saline 93 % of control | dose: 32.0 mg/kg/injection, schedule: Q01DX009 (ip), vehicle: saline 114 % of control

CC1=C2C(=O)[C@H]3[C@@H](CC=C4C[C@@H](O)CC[C@@]43C)[C@@H]2CC[C@]12O[C@@H]1C[C@H](C)CN[C@H]1[C@H]2C
inactive: [18] 98 % of control | [19] 92 % of control | [20] 92 % of control

CCOc1ccc(/C=N/NS(=O)(=O)c2ccccc2)cc1OC
inactive: [21] 100 % of control | dose: 200.0 mg/kg/injection, schedule: Q04DX003 (ip), vehicle: saline with Tween-80 95 % of control | dose: 400.0 mg/kg/injection, schedule: Q04DX003 (ip), vehicle: saline with Tween-80 100 % of control

Cc1ccc(-c2nc3ccccc3c(=O)n2/N=C/c2ccc(O)cc2)cc1
inactive: [14] 100 % of control | [22] 99 % of control | dose: 200.0 mg/kg/injection, schedule: Q01DX005 (ip), vehicle: saline with Tween-80 89 % of control

CC(=O)Oc1cc(-c2ccccc2)oc1-c1ccccc1
inactive: dose: 100.0 mg/kg/injection, schedule: Q04DX002 (ip), vehicle: saline 104 % of control | dose: 200.0 mg/kg/injection, schedule: Q04DX002 (ip), vehicle: saline 106 % of control | dose: 400.0 mg/kg/injection, schedule: Q04DX002 (ip), vehicle: saline 98 % of control

O=c1[nH]c2c(Cl)c(Cl)c(Cl)c(Cl)c2[nH]c1=O
inactive: [14] 90 % of control | [22] 87 % of control

CCc1nc2c(Br)c3oc(CC)nc3c(Br)c2o1
inactive: dose: 60.0 mg/kg/injection, schedule: Q01DX005 (ip), vehicle: Klucel (hydroxypropylcellulose) (HPC) 103 % of control | dose: 120.0 mg/kg/injection, schedule: Q01DX005 (ip), vehicle: Klucel (hydroxypropylcellulose) (HPC) 100 % of control | dose: 240.0 mg/kg/injection, schedule: Q01DX005 (ip), vehicle: Klucel (hydroxypropylcellulose) (HPC) 90 % of control

CN(CCCCCl)C(=O)Oc1ccccc1
inactive: [6] 102 % of control | [16] 106 % of control | [17] 99 % of control

COc1ccc2c(c1OC)C(OC)OC(c1cc3c(cc1CCN(C)C)OCO3)C2 (stereo unspecified)
inactive: dose: 12.5 mg/kg/injection, schedule: Q01DX001 (ip), vehicle: saline + alcohol 91 % of control | dose: 25.0 mg/kg/injection, schedule: Q01DX001 (ip), vehicle: saline + alcohol 88 % of control | dose: 50.0 mg/kg/injection, schedule: Q01DX001 (ip), vehicle: saline + alcohol 91 % of control
